From the NIST ThermoML archive (doi:10.1016/j.jct.2004.03.002) come the findings set out here.

Each structure is given as a SMILES string. ± gives the expanded uncertainty stated by the source.

For data set [1] the following is noted: Crystal.
The nature of data set [2]: molar enthalpy of vaporization or sublimation. To be noted: Crystal.
Data set [3] can be described thus: Molar enthalpy of transition or fusion. To be noted: Crystal.

Regarding `CC1=C(C)C(=O)C(C)=C(C)C1=O` [1,4-benzoquinone, tetramethyl-], the Triple point temperature in data set [1] (DTA) was 384.12 ± 0.64 K; in data set [1] (heat flux calorimetry), 384.84 ± 0.09 K. The molar enthalpy in data set [2] (297.3 K) came to 22.3 ± 0.765 kcal/mol; in data set [2] (297.4 K), 21.9 ± 0.765 kcal/mol; in data set [2] (298.15 K) it was 22.3 ± 1.05 kcal/mol. Also, the “Molar enthalpy of transition or fusion” value in data set [3] (DSC) was found to be 4.4 ± 0.105 kcal/mol; in data set [3] (heat flux calorimetry), 4.431 ± 0.0382 kcal/mol.

Turning to `O=C1C=CC(=O)C=C1` [1,4-benzoquinone], the values for the Triple point temperature in data set [1] (DTA) and in data set [1] (heat flux calorimetry) were 385.07 ± 0.68 K and 385.65 ± 0.24 K, respectively. For the same compound, the molar enthalpy amounted to 15.4 ± 0.598 kcal/mol in data set [2] (277.3 K), 15.1 ± 0.598 kcal/mol in data set [2] (278.2 K), 14.9 ± 0.598 kcal/mol in data set [2] (279.2 K) and 15.9 ± 0.884 kcal/mol in data set [2] (298.15 K). Moreover, the “Molar enthalpy of transition or fusion” value came out at 4.4 ± 0.108 kcal/mol in data set [3] (DSC) and 4.39 ± 0.174 kcal/mol in data set [3] (heat flux calorimetry).
